These are literature values, as cited in patent publication US20070208072A1, “Maleate salt of tegaserod and crystalline forms thereof” (priority 2006, published 2007).

The conditions of the data set: white to off-white crystalline powder.

For `CCCCCNC(=N)N/N=C/c1c[nH]c2ccc(OC)cc12.O=C(O)/C=C\C(=O)O` [Tegaserod maleate], the solubility in ethanol entry (ethanol) was “slightly soluble”. Moreover, the solubility in water result (water) is listed as “very slightly soluble”.
